The record followed here is patent US20250368620A1, “ARNT Degrading Compounds and Uses Thereof” (Celgene Corporation, priority 2024, published 2025).

In this assay the target is T1, ARNT (Homo sapiens, UniProt P27540).
T1 construct: an sgRNA targeting the C-terminus of the ARNT gene near the stop codon; endogenous in cells; host or cells: HEK293 ARNT-HiBiT knock-in, homozygous clone
Put plainly: ARNT degradation in a HiBiT system (HEK293 ARNT-HiBiT Knock-In cell line). The note with it: half-maximal degradation concentration; HEK293 ARNT-HiBiT KI cells, 4h of treatment, luminescence. The format is cell-based. The method, then: Compounds of Formula (I) were tested for ARNT degradation in a HiBiT system. A HEK293 ARNT-HiBiT Knock-In cell line was generated using CRISPR/Cas9 technology. Briefly, HEK293 cells were electroporated with the Neon system with an sgRNA targeting the C-terminus of the ARNT gene near the stop codon ([…] (SEQ ID NO: 1); chr 1: 150,812,014-150,812,034) and the HiBiT donor DNA template (80 nucleotides homology arms upstream and downstream of the insert site, with a GSGS (SEQ ID NO: 2) linker). A homozygous clone was selected after Sanger sequencing, and genetic edition was further validated using Nano-Glo HiBiT blotting system. HEK293 ARNT-HiBiT KI cells were cultured in DMEM+10% FBS at 37° C. and 5% CO2. For the assay, cells were seeded at 10,000 cells/well in white 384 plates (Corning #3570) in 22.5 μl of culture medium without phenol red. Test compounds were spotted in 384-well plates by an acoustic dispenser (10 concentrations, semi-log dilution, in 100% DMSO). Before treatment, compounds were diluted 1:100 or 1:1,000 in culture medium without phenol red, and cells were treated with 2.5 μl of diluted compounds 18h after seeding (final top concentration: 3 or 0.3 μM). After 4h of treatment, plates were equilibrated at room temperature for 30 min, and 25 μl of NANO-GLO® HiBiT Lytic reagent were added per well. Luminescence was measured on a plate reader 15 min after incubation with the detection reagent. Data were analyzed using the Genedata Screener Software version 19, and normalization was performed using the DMSO treated wells as Neutral Control and medium only (without cells) wells as Scale Reference. For curve fitting, the smart fit condensing method with a 4-parameters Hill model was used and the half-maximal degradation concentration (DC50) was calculated.
On the technique in general: The HiBiT peptide binds its large partner to form an active luciferase.

T1 sequence (P27540 whole entry): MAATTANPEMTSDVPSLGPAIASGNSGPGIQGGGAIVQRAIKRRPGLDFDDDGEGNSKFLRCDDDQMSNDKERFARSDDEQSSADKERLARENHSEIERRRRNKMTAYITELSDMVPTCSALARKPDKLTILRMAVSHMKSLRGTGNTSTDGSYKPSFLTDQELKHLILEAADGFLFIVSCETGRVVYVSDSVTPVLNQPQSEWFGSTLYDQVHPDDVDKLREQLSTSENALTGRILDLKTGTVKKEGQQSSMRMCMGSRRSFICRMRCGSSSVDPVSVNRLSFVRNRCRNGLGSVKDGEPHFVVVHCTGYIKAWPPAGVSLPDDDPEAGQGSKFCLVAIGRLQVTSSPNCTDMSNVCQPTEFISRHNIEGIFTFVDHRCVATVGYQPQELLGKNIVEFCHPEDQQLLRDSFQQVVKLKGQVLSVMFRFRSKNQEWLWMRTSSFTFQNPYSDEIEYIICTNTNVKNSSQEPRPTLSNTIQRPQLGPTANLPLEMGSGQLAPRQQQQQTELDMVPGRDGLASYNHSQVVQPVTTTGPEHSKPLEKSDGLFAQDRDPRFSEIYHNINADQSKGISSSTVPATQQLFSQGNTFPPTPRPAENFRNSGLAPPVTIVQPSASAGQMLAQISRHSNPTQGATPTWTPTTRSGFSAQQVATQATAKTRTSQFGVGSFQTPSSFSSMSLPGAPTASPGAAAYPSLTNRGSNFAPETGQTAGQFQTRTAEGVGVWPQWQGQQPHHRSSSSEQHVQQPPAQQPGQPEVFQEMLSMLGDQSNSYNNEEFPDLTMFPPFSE

As a reminder, the DC50 is the concentration at which degradation of the target reaches its halfway point. Higher therefore signals degradation only at high concentration. The compound `C[C@@H]1c2cc(C(=O)N3Cc4ccccc4[C@@H]3CN(C)C)ccc2C(=O)N1[C@H]1CCC(=O)NC1=O` [Compound 1, (S)-3-((R)-5-((R)-1-((dimethylamino)methyl)isoin-doline-2-carbonyl)-3-methyl-1-oxoisoindolin-2-yl)piperidine-2,6-dione] showed a DC50 of 0.29 nM. That is a sub-nanomolar value.

The compound `C[C@@H]1c2cc(C(=O)N3Cc4c(ccc(Cl)c4F)[C@@H]3CN(C)C)ccc2C(=O)N1[C@H]1CCC(=O)NC1=O` [Compound 2, (S)-3-((R)-5-((R)-5-chloro-1-((dimethylamino)methyl)-4-fluoroisoindoline-2-carbonyl)-3-methyl-1-oxoisoindolin-2-yl)piperidine-2,6-dione] gave a 50% degradation concentration (DC50) of 0.33 nM. As for `C[C@@H]1c2cc(C(=O)N3Cc4c(Br)cccc4[C@@H]3CN(C)C)ccc2C(=O)N1[C@H]1CCC(=O)NC1=O` [Compound 3, (S)-3-((R)-5-((R)-4-bromo-1-((dimethylamino)methyl)isoin-doline-2-carbonyl)-3-methyl-1-oxoisoindolin-2-yl)piperidine-2,6-dione], the figure is 0.39 nM; as for `C[C@@H]1c2cc(C(=O)N3Cc4c(ccc(Cl)c4F)[C@@H]3CN3CCCC3)ccc2C(=O)N1[C@H]1CCC(=O)NC1=O` [Compound 4, (S)-3-((R)-5-((R)-5-chloro-4-fluoro-1-(pyrrolidin-1-ylmethyl)isoindoline-2-carbonyl)-3-methyl-1-oxoisoindolin-2-yl)piperidine-2,6-dione], 0.42 nM.

With `C[C@H]1c2ccc(Cl)c(F)c2CN1C(=O)c1ccc2c3c(cccc13)N(C1CCC(=O)NC1=O)C2=O` (stereo partly drawn) [Compound 5, 3-(5-((S)-5-chloro-4-fluoro-1-methylisoindoline-2-carbonyl)-2-oxobenzo[cd]indol-1(2H)-yl)piperidine-2,6-dione], it took 0.42 nM to reach half-maximal degradation (DC50).

In turn, `C[C@@H]1c2cc(C(=O)N3Cc4c(ccc(Cl)c4F)[C@@H]3CN3CCCCC3)ccc2C(=O)N1[C@H]1CCC(=O)NC1=O` [Compound 6, (S)-3-((R)-5-((R)-5-chloro-4-fluoro-1-(piperidin-1-ylmethyl)isoindoline-2-carbonyl)-3-methyl-1-oxoisoindolin-2-yl)piperidine-2,6-dione] gave a DC50 of 0.46 nM. This DC50 and that of the compound before are within 1.5-fold of each other. In turn, `C[C@@H]1c2cc(C(=O)N3Cc4c(ccc(Cl)c4F)[C@@H]3CN3CC4CC3C4)ccc2C(=O)N1[C@H]1CCC(=O)NC1=O` [Compound 7, (S)-3-((R)-5-((R)-1-((2-azabicyclo[2.1.1]hexan-2-yl)methyl)-5-chloro-4-fluoroisoindoline-2-carbonyl)-3-methyl-1-oxoisoindolin-2-yl)piperidine-2,6-dione] yielded a DC50 of 0.48 nM. The DC50 values of the last two compounds are within 1.5-fold of each other. As for `C[C@@H]1c2cc(C(=O)N3Cc4cc(C(F)(F)F)ccc4[C@@H]3CN(C)C)ccc2C(=O)N1[C@H]1CCC(=O)NC1=O` [Compound 8, (S)-3-((R)-5-((R)-1-((dimethylamino)methyl)-5-(trifluoromethyl)isoindoline-2-carbonyl)-3-methyl-1-oxoisoindolin-2-yl)piperidine-2,6-dione], the figure is 0.61 nM; as for `C[C@@H]1c2cc(C(=O)N3Cc4cc(Br)ccc4[C@@H]3C)ccc2C(=O)N1[C@H]1CCC(=O)NC1=O` [Compound 9, (S)-3-((R)-5-((S)-5-bromo-1-methylisoindoline-2-carbonyl)-3-methyl-1-oxoisoindolin-2-yl)piperidine-2,6-dione], 0.66 nM. As for `C[C@@H]1c2cc(C(=O)N3Cc4c(ccc(Cl)c4F)[C@@H]3CN3CC4CCC3C4)ccc2C(=O)N1[C@H]1CCC(=O)NC1=O` (stereo partly drawn) [Compound 10, (3S)-3-((3R)-5-((1R)-1-((2-azabicyclo[2.2.1]heptan-2-yl)methyl)-5-chloro-4-fluoroisoindoline-2-carbonyl)-3-methyl-1-oxoisoindolin-2-yl)piperidine-2,6-dione], the figure is 0.71 nM; as for `COc1cccc2c1CN(C(=O)c1ccc3c(c1)[C@@H](C)N([C@H]1CCC(=O)NC1=O)C3=O)[C@H]2CN(C)C` [Compound 11, (S)-3-((R)-5-((R)-1-((dimethylamino)methyl)-4-methoxyisoindoline-2-carbonyl)-3-methyl-1-oxoisoindolin-2-yl)piperidine-2,6-dione], 0.72 nM. Take `C[C@@H]1c2cc(C(=O)N3Cc4c(ccc(Cl)c4F)[C@@H]3CN3CCC(F)CC3)ccc2C(=O)N1[C@H]1CCC(=O)NC1=O` [Compound 12, (S)-3-((R)-5-((R)-5-chloro-4-fluoro-1-((4-fluoropiperidin-1-yl)methyl)isoindoline-2-carbonyl)-3-methyl-1-oxoisoindolin-2-yl)piperidine-2,6-dione]: half-maximal degradation (DC50) was put at 0.73 nM. For the compound `C[C@@H]1c2cc(C(=O)N3Cc4cc(F)ccc4[C@@H]3C)ccc2C(=O)N1[C@H]1CCC(=O)NC1=O` [Compound 13, (S)-3-((R)-5-((S)-5-fluoro-1-methylisoindoline-2-carbonyl)-3-methyl-1-oxoisoindolin-2-yl)piperidine-2,6-dione], half-maximal degradation (DC50) was put at 0.78 nM. The DC50 values of the last two compounds are within 1.5-fold of each other. Compound `COc1ccc2c(c1Br)CN(C(=O)c1ccc3c(c1)[C@@H](C)N([C@H]1CCC(=O)NC1=O)C3=O)[C@H]2CN(C)C` [Compound 14, (S)-3-((R)-5-((R)-4-bromo-1-((dimethylamino)methyl)-5-methoxyisoindoline-2-carbonyl)-3-methyl-1-oxoisoindolin-2-yl)piperidine-2,6-dione] gave a DC50 of 0.95 nM. The compound `C[C@@H]1c2cc(C(=O)N3Cc4c(ccc(Cl)c4F)[C@@H]3CN3CC(F)(F)C3)ccc2C(=O)N1[C@H]1CCC(=O)NC1=O` [Compound 15, (S)-3-((R)-5-((R)-5-chloro-1-((3,3-difluoroazetidin-1-yl)methyl)-4-fluoroisoindoline-2-carbonyl)-3-methyl-1-oxoisoindolin-2-yl)piperidine-2,6-dione] gave a DC50 of 1 nM. `C[C@H]1c2ccc(C(F)(F)F)cc2CN1C(=O)c1ccc2c3c(cccc13)N(C1CCC(=O)NC1=O)C2=O` (stereo partly drawn) [Compound 16, 3-(5-((S)-1-methyl-5-(trifluoromethyl)isoindoline-2-carbonyl)-2-oxobenzo[cd]indol-1(2H)-yl)piperidine-2,6-dione]: half-maximal degradation (DC50) was put at 1 nM.

Compound `C[C@@H]1c2cc(C(=O)N3Cc4c(ccc(Cl)c4F)[C@@H]3CN3CCC3)ccc2C(=O)N1[C@H]1CCC(=O)NC1=O` [Compound 17, (S)-3-((R)-5-((R)-1-(azetidin-1-ylmethyl)-5-chloro-4-fluoroisoindoline-2-carbonyl)-3-methyl-1-oxoisoindolin-2-yl)piperidine-2,6-dione] had a DC50 of 1.2 nM. On to `Cc1c(C2CC2)ccc2c1CN(C(=O)c1ccc3c(c1)[C@@H](C)N([C@H]1CCC(=O)NC1=O)C3=O)[C@H]2C` [Compound 18, (S)-3-((R)-5-((S)-5-cyclopropyl-1,4-dimethylisoindoline-2-carbonyl)-3-methyl-1-oxoisoindolin-2-yl)piperidine-2,6-dione], for which the DC50 was determined as 1.2 nM.

Take `C[C@@H]1c2cc(C(=O)N3Cc4c(ccc(Br)c4F)[C@@H]3C)ccc2C(=O)N1[C@H]1CCC(=O)NC1=O` [Compound 19, (S)-3-((R)-5-((S)-5-bromo-4-fluoro-1-methylisoindoline-2-carbonyl)-3-methyl-1-oxoisoindolin-2-yl)piperidine-2,6-dione]: it took 1.2 nM to reach half-maximal degradation (DC50). `C[C@@H]1c2cc(C(=O)N3Cc4cc(C(F)(F)F)ccc4[C@@H]3C)c(F)cc2C(=O)N1[C@H]1CCC(=O)NC1=O` [Compound 20, (S)-3-((R)-5-fluoro-1-methyl-6-((S)-1-methyl-5-(trifluoromethyl)isoindoline-2-carbonyl)-3-oxoisoindolin-2-yl)piperidine-2,6-dione]: the DC50 is 1.3 nM.

In the case of `C[C@@H]1c2cc(C(=O)N3Cc4cc(F)c(F)cc4[C@@H]3C)ccc2C(=O)N1[C@H]1CCC(=O)NC1=O` [Compound 21, (S)-3-((R)-5-((S)-5,6-difluoro-1-methylisoindoline-2-carbonyl)-3-methyl-1-oxoisoindolin-2-yl)piperidine-2,6-dione], it took 1.3 nM to reach half-maximal degradation (DC50). Turning to `COc1c(Br)ccc2c1CN(C(=O)c1ccc3c(c1)[C@@H](C)N([C@H]1CCC(=O)NC1=O)C3=O)[C@H]2C` [Compound 22, (S)-3-((R)-5-((S)-5-bromo-4-methoxy-1-methylisoindoline-2-carbonyl)-3-methyl-1-oxoisoindolin-2-yl)piperidine-2,6-dione], the DC50 stood at 1.3 nM. `CCOc1ccc2c(c1C)CN(C(=O)c1ccc3c(c1)[C@@H](C)N([C@H]1CCC(=O)NC1=O)C3=O)[C@H]2C` [Compound 23, (S)-3-((R)-5-((S)-5-ethoxy-1,4-dimethylisoindoline-2-carbonyl)-3-methyl-1-oxoisoindolin-2-yl)piperidine-2,6-dione] returned a DC50 of 1.3 nM. That is a single-digit nanomolar value. Take `C[C@@H]1c2cc(C(=O)N3Cc4c(ccc(Br)c4Cl)[C@@H]3C)ccc2C(=O)N1[C@H]1CCC(=O)NC1=O` [Compound 24, (S)-3-((R)-5-((S)-5-bromo-4-chloro-1-methylisoindoline-2-carbonyl)-3-methyl-1-oxoisoindolin-2-yl)piperidine-2,6-dione]: the DC50 turned out to be 1.3 nM.
